Legend:
Assay in all cases: Cytotoxicity assay (MTT assay)
Type in all cases: cell-based, human
A549 cells = conditions: for Inhibitory rates (%): A549, 20 μM
Protocol: (§1) To evaluate the cytotoxicity of chiral platinum(II) complexes, HeLa, BEL-7402, MGC80-3, BEL-7404, A549, Hep-G2 and HL-7702 cells (normal cells) were treated with varying concentrations of complexes 1–6 and cisplatin (positive control, cisplatin was dissolved at a concentration of 1.0 mM in 0.154 M NaCl) for 24 h and 48 h. The cell viability of each experimental group was examined by MTT assays. […] [61, 62]. […] Therefore, complex 6 (10 μM) was selected for cell apoptosis analysis by flow-cytometry, RT-PCR, caspase-3/9 activation assays, western blot and transfection assays in BEL-7404 cells for 24 h. In addition, this observed difference in in vitro cytotoxicity between the three complexes 4–6 could be due to the influence of the chirality of the FOA ligand [68]. […]
(§2) Materials 100 U/mL penicillin and 100 μg/mL streptomycin in 25 cm2 culture flasks at 37 °C humidified atmosphere with Tris, RNase A, and propidium iodide (PI) were 5% CO2. All cells to be tested in the following assays have purchased from Sigma. The antibody of mutp53, a passage number of 3-6. […]
(§3) were purchased from Abcam. Unless otherwise stated, BEL-7404, A549, and Hep-G2 cancer-cell lines and HL-spectroscopic titration experiments were carried out in 7702 normal cells) per well were seeded in triplicate in TBS (10 mM pH7.35 Tris-HCl, containing 100 mM KCl). 96-well plates and incubated for 24 h at 37 °C and 5.0% The total RNA isolation kit and the two-step RT-PCR kit CO2/95.0% air. Then graded amounts of compound were purchased from TIANGEN. DNA oligomers (highly added to the wells in 10.0 μL of FBS free culture medium polymerized stored at 4 °C; long-term storage at −20 °C) and the plates were incubated in a 5% CO2 humidified are listed in Supplementary Table 1 and were obtained from atmosphere for 24 h and 48 h. Six replica wells were used Shanghai Sangon Biological Engineering Technology & as controls. Each the cells were grew for 12.0 h before Services (Shanghai, China). All tumor cell lines (HeLa, treatment to reach 70.0% confluency and 20.0 μL of tested BEL-7402, MGC80-3, BEL-7404, A549, Hep-G2 cancer- various concentrations of compounds were added to each cell lines and normal liver cell line HL-7702) were obtained well. The final concentration of the tested complexes from the Shanghai Institute for Biological Science (China). or compounds were kept at 1.25, 2.5, 5, 10, 20 μM, Stock solutions of all the compounds (2.0 mM) were made respectively. After 24 h or 48 h of culture, 0.1 mg of in DMSO, and further dilutions to working concentrations MTT (in 20 μL of PBS) was added to each well, and cells were made with corresponding buffer. were incubated at 37 °C for 6 h. The formed formazan crystals were then dissolved in 100 μL of DMSO and the Instrumentation absorbance was read by enzyme labeling instrument with Infrared spectra were obtained on a Perkine Elmer 490/630 nm double wavelength measurement. The final FT-IR Spectrometer. Elemental analyses (C, H, N) IC50 values were calculated by the Bliss method (n = 5). were carried out on a Perkin Elmer Series II CHNS/O All tests were repeated in at least three independent trials. […]
(§4) 10.0 min. The cell pellet obtained was dissolved in 1.0 M
(§5) The region between 200 and 400 nm was scanned for each NaOH (1.0 mL) and diluted with 2.0% (v/v) HNO3 (5.0 sample. MTT assay was performed on M1000 microplate mL) for determining whole cell Pt content. Another set reader (Tecan Trading Co. Ltd, Shanghai, China). Cell was treated similarly, nuclear proteins, nuclear fraction, cycle and apoptosis analysis was recorded on FACS Aria cytoplasmic protein, membrane proteins and other fraction II Flow Cytometer (BD Biocsiences, San Jose, USA). were isolated as described by Chen and Schreiber et al. And the each final solution was made up to 5.0 mL
(§6) Cytotoxicity assay (MTT assay) using 2.0% (v/v) HNO3. The amount of Pt taken up by the cells was determined by ICP-MS. The instrument was […]

BEL-7402 cells = conditions: for Inhibitory rates (%): BEL-7402, 20 μM
Protocol: as §1, §2, §3, §4, §5, §6

BEL-7404 cells = conditions: for Inhibitory rates (%): BEL-7404, 20 μM
Protocol: as §1, §2, §3, §4, §5, §6

HeLa cells = conditions: for Inhibitory rates (%): 20 μM
Protocol: as §1, §2, §3, §4, §5, §6

Hep-G2 cells = conditions: for Inhibitory rates (%): Hep-G2, 20 μM
Protocol: as §1, §2, §3, §4, §5, §6

MGC80-3 cells = conditions: for Inhibitory rates (%): MGC80-3, 20 μM
Protocol: as §1, §2, §3, §4, §5, §6

HL-7702 normal cells = conditions: for Inhibitory rates (%): HL-7702, 20 μM
Protocol: To evaluate the cytotoxicity of chiral platinum(II) complexes, HeLa, BEL-7402, MGC80-3, BEL-7404, A549, Hep-G2 and HL-7702 cells (normal cells) were treated with varying concentrations of complexes 1–6 and cisplatin (positive control, cisplatin was dissolved at a concentration of 1.0 mM in 0.154 M NaCl) for 24 h and 48 h. The cell viability of each experimental group was examined by MTT assays. […] [61, 62].
as §2, §3

Row | Compound | Inhibitory rates (%) (A549 cells; 24 h) | Inhibitory rates (%) (A549 cells; 48 h) | IC50 (A549 cells; A549, 24 h) [µM] | IC50 (A549 cells; A549, 48 h) [µM] | Inhibitory rates (%) (BEL-7402 cells; 24 h) | Inhibitory rates (%) (BEL-7402 cells; 48 h) | IC50 (BEL-7402 cells; BEL-7402, 24 h) [µM] | IC50 (BEL-7402 cells; BEL-7402, 48 h) [µM] | Inhibitory rates (%) (BEL-7404 cells; 24 h) | Inhibitory rates (%) (BEL-7404 cells; 48 h) | IC50 (BEL-7404 cells; BEL-7404, 24 h) [µM] | IC50 (BEL-7404 cells; BEL-7404, 48 h) [µM] | Inhibitory rates (%) (HeLa cells; 24 h) | Inhibitory rates (%) (HeLa cells; 48 h) | IC50 (HeLa cells; 24 h) [µM] | IC50 (HeLa cells; 48 h) [µM] | Inhibitory rates (%) (Hep-G2 cells; 24 h) | Inhibitory rates (%) (Hep-G2 cells; 48 h) | IC50 (Hep-G2 cells; Hep-G2, 24 h) [µM] | IC50 (Hep-G2 cells; Hep-G2, 48 h) [µM] | also measured
1 | cis-[PtCl2(S-(–)-FOA)] [complex 6] | 65.3 ± 1.3 | 84.7 ± 2.2 | 15.3 ± 1.2 | 8.2 ± 0.5 | 50.5 ± 1.6 | 58.4 ± 2.1 | 20.6 ± 1.5 | 15.3 ± 2.2 | 70.9 ± 0.7 | 81.3 ± 0.4 | 10.1 ± 0.6 | 7.9 ± 0.3 | 21.1 ± 0.9 | 25.1 ± 1.4 | 78.2 ± 0.9 | 31.8 ± 0.7 | 30.2 ± 1.6 | 39.3 ± 2.2 | 50.1 ± 1.8 | 17.7 ± 1.2 | Inhibitory rates (%) (MGC80-3 cells; 24 h): 25.1 ± 0.5%; Inhibitory rates (%) (MGC80-3 cells; 48 h): 26.5 ± 1.1%; IC50 (MGC80-3 cells; MGC80-3, 24 h): 72.8 ± 0.4 µM; IC50 (MGC80-3 cells; MGC80-3, 48 h): 31.5 ± 1.7 µM; selectivity index factor, IC50 (normal HL-7702 cells)/IC50 (BEL-7404 tumor cells) (HL-7702 normal cells; 24 h): 11.8; selectivity index factor, IC50 (normal HL-7702 cells)/IC50 (BEL-7404 tumor cells) (HL-7702 normal cells; 48 h): 10.7; Inhibitory rates (%) (HL-7702 normal cells; 24 h): 20.7 ± 1.6%; Inhibitory rates (%) (HL-7702 normal cells; 48 h): 33.9 ± 2.2%; IC50 (HL-7702 normal cells; HL-7702, 24 h): 119 ± 1.5 µM; IC50 (HL-7702 normal cells; HL-7702, 48 h): 84.2 ± 1.2 µM
2 | N.N.[Cl][Pt][Cl] [cisplatin, reference compound] | 48.6 ± 0.4 | 51.1 ± 3.4 | 21.3 ± 0.7 | 17 ± 2.3 | 55.4 ± 0.9 | 65.7 ± 1.2 | 17.5 ± 0.6 | 13.5 ± 0.9 | 45.5 ± 2.1 | 54.2 ± 1.4 | 24.8 ± 1.8 | 15.8 ± 0.7 | 64.3 ± 1.4 | 80.6 ± 0.9 | 15.8 ± 1.2 | 5.8 ± 0.9 | 51.6 ± 0.6 | 60.6 ± 1.0 | 19.5 ± 0.5 | 9.5 ± 0.4 | Inhibitory rates (%) (MGC80-3 cells; 24 h): 61.5 ± 1.2%; Inhibitory rates (%) (MGC80-3 cells; 48 h): 71.4 ± 1.5%; IC50 (MGC80-3 cells; MGC80-3, 24 h): 16.3 ± 1.3 µM; IC50 (MGC80-3 cells; MGC80-3, 48 h): 5.4 ± 0.5 µM; selectivity index factor, IC50 (normal HL-7702 cells)/IC50 (BEL-7404 tumor cells) (HL-7702 normal cells; 24 h): 0.8; selectivity index factor, IC50 (normal HL-7702 cells)/IC50 (BEL-7404 tumor cells) (HL-7702 normal cells; 48 h): 1.0; Inhibitory rates (%) (HL-7702 normal cells; 24 h): 59.6 ± 1.2%; Inhibitory rates (%) (HL-7702 normal cells; 48 h): 73.6 ± 2.3%; IC50 (HL-7702 normal cells; HL-7702, 24 h): 19.8 ± 1.3 µM; IC50 (HL-7702 normal cells; HL-7702, 48 h): 15.6 ± 0.3 µM
3 | cis-[PtCl2(R/S-(±)-FOA)] [complex 4] | 57.6 ± 0.6 | 77.8 ± 0.1 | 18.6 ± 0.5 | 9.1 ± 0.6 | 41.2 ± 0.6 | 48.6 ± 1.3 | 32.5 ± 0.5 | 20.7 ± 0.9 | 67.3 ± 1.3 | 80.0 ± 4.3 | 12.5 ± 1.1 | 8.7 ± 0.1 | 18.5 ± 0.7 | 24.1 ± 2.1 | 90.5 ± 0.7 | 38.1 ± 1.5 | 20.8 ± 0.3 | 27.6 ± 1.1 | 84.6 ± 0.4 | 29.1 ± 0.8 | Inhibitory rates (%) (MGC80-3 cells; 24 h): 22.0 ± 1.9%; Inhibitory rates (%) (MGC80-3 cells; 48 h): 24.9 ± 1.4%; IC50 (MGC80-3 cells; MGC80-3, 24 h): 80.6 ± 2 µM; IC50 (MGC80-3 cells; MGC80-3, 48 h): 32.1 ± 1.8 µM; selectivity index factor, IC50 (normal HL-7702 cells)/IC50 (BEL-7404 tumor cells) (HL-7702 normal cells; 24 h): 6.8; selectivity index factor, IC50 (normal HL-7702 cells)/IC50 (BEL-7404 tumor cells) (HL-7702 normal cells; 48 h): 6.7; Inhibitory rates (%) (HL-7702 normal cells; 24 h): 28.3 ± 1.7%; Inhibitory rates (%) (HL-7702 normal cells; 48 h): 31.6 ± 2.4%; IC50 (HL-7702 normal cells; HL-7702, 24 h): 85.4 ± 1.5 µM; IC50 (HL-7702 normal cells; HL-7702, 48 h): 58.5 ± 5.5 µM
4 | cis-[PtCl2(R-(+)-FOA)] [complex 5] | 28.9 ± 0.5 | 35.9 ± 2.6 | 56.3 ± 0.7 | 17.2 ± 0.1 | 35.6 ± 2.1 | 42.1 ± 0.7 | 42.3 ± 1.9 | 38.4 ± 1.4 | 46.1 ± 1.1 | 55.9 ± 2.7 | 22.5 ± 1.3 | 14.5 ± 0.5 | 8.6 ± 1.5 | 9.9 ± 0.7 | 168.6 ± 1.4 | 64.2 ± 0.2 | 16.5 ± 1.4 | 23.3 ± 0.5 | 93.4 ± 1.2 | 35.7 ± 1.5 | Inhibitory rates (%) (MGC80-3 cells; 24 h): 11.3 ± 0.4%; Inhibitory rates (%) (MGC80-3 cells; 48 h): 19.8 ± 1.8%; IC50 (MGC80-3 cells; MGC80-3, 24 h): 135.1 ± 0.5 µM; IC50 (MGC80-3 cells; MGC80-3, 48 h): 37.4 ± 1.2 µM; selectivity index factor, IC50 (normal HL-7702 cells)/IC50 (BEL-7404 tumor cells) (HL-7702 normal cells; 24 h): 3.6; selectivity index factor, IC50 (normal HL-7702 cells)/IC50 (BEL-7404 tumor cells) (HL-7702 normal cells; 48 h): 3.9; Inhibitory rates (%) (HL-7702 normal cells; 24 h): 30.6 ± 2.1%; Inhibitory rates (%) (HL-7702 normal cells; 48 h): 37.5 ± 5.3%; IC50 (HL-7702 normal cells; HL-7702, 24 h): 80.1 ± 1.8 µM; IC50 (HL-7702 normal cells; HL-7702, 48 h): 55.8 ± 3.1 µM

— paper PMC5617480 (Oncotarget, 2017)
